{
  "source": "patent US6015809A",
  "about": "(priority 1999, dated 2000)",
  "format_in_all_cases": "cell-based",
  "key": {"[1]": {"tested_on": "Candida pseudotropicalis", "assay": "Antifungal activity, MIC microdilution", "conditions": "strain ATCC 28838; RPMI 1640, 35° C., 24-48 hours", "method": "(§1) Briefly the following procedure was used to evaluate such activity. A 96 U-bottom microtiter plate was filled (50 μl/well) with RPMI 1640. The compounds to be evaluated were placed in appropriate wells, and serial diluted in successive wells to provide 11 dilutions. The concentrations ranged from 64 through 0.06 μg/ml. An adjusted inoculum of fungi (50 μl) was added to each well and the plates were incubated at 35° C. for 24-48 hours."}, "[2]": {"tested_on": "Candida zeylanoided", "assay": "Antifungal activity, MIC microdilution", "conditions": "strain 94-15; RPMI 1640, 35° C., 24-48 hours", "method": "as §1"}, "[3]": {"tested_on": "Candida albicans", "assay": "Antifungal activity, MIC microdilution", "conditions": "RPMI 1640, 35° C., 24-48 hours", "method": "as §1"}, "[4]": {"tested_on": "Candida lusitaniae", "assay": "Antifungal activity, MIC microdilution", "conditions": "strain 94-3; RPMI 1640, 35° C., 24-48 hours", "method": "as §1"}, "[5]": {"tested_on": "Aspergillus niger", "assay": "Antifungal activity, MIC microdilution", "conditions": "strain S-430; RPMI 1640, 35° C., 24-48 hours", "method": "as §1"}, "[6]": {"tested_on": "Saccharomyces cerevisiae", "assay": "Antifungal activity, MIC microdilution", "conditions": "strain ATCC 2601; RPMI 1640, 35° C., 24-48 hours", "method": "as §1"}, "[7]": {"tested_on": "Aspergillus flavus", "assay": "Antifungal activity, MIC microdilution", "conditions": "strain ATCC 12963; RPMI 1640, 35° C., 24-48 hours", "method": "as §1"}, "[8]": {"tested_on": "Candida rugosa", "assay": "Antifungal activity, MIC microdilution", "conditions": "strain 94-10; RPMI 1640, 35° C., 24-48 hours", "method": "as §1"}, "[9]": {"tested_on": "A431 (vulva epidermoid origin) tumor cells", "assay": "Antineoplastic activity in vitro, tumor cell growth (sulforhrodamine B)", "conditions": "A431, 48 hours", "from_the_text": "(§2) Antineoplastic activity for the compounds of this invention was established by evaluating the antineoplastic activity of a representative compound of this invention (Compound I) against six tumor cell lines in vitro. Briefly, tumor cells from six cell lines were placed in wells of a 96 well microtiter plate. The following tumor cell lines were used: A2780S (ovarian), A2780DDP (ovarian--resistant to cis-platin), A431 (vulva epidermoid origin), SW620 (colon), SKBR3 (breast), and MDA-MB-435 (breast). The tumors cells were grown in the presence of serial dilutions of the compound to be evaluated for 48 hours, and cell growth determined using a colorimetric procedure (sulforhrodamine B). The inhibition of growth was calculated compared to the number of cells at the time of test compound addition. Results are expressed as an IC50 (μg/ml). […] In particular, the compounds of this invention are useful against solid tumors, including sarcomas and carcinomas; and more particularly against astrocytomas, prostate cancer, breast cancer, colon cancer, small cell lung cancer, and ovarian cancer; and adult T-cell leukemia/lymphoma."}, "[10]": {"tested_on": "MDA-MB-435 (breast) tumor cells", "assay": "Antineoplastic activity in vitro, tumor cell growth (sulforhrodamine B)", "conditions": "MDA-MB-435, 48 hours", "from_the_text": "as §2"}, "[11]": {"tested_on": "SKBR3 (breast) tumor cells", "assay": "Antineoplastic activity in vitro, tumor cell growth (sulforhrodamine B)", "conditions": "SKBR3, 48 hours", "from_the_text": "as §2"}, "[12]": {"tested_on": "A2780S (ovarian) tumor cells", "assay": "Antineoplastic activity in vitro, tumor cell growth (sulforhrodamine B)", "conditions": "48 hours", "from_the_text": "as §2"}, "[13]": {"tested_on": "SW620 (colon) tumor cells", "assay": "Antineoplastic activity in vitro, tumor cell growth (sulforhrodamine B)", "conditions": "SW620, 48 hours", "from_the_text": "as §2"}, "[14]": {"tested_on": "A2780DDP (ovarian--resistant to cis-platin) tumor cells", "assay": "Antineoplastic activity in vitro, tumor cell growth (sulforhrodamine B)", "conditions": "48 hours", "from_the_text": "as §2"}, "[15]": {"tested_on": "Cryptococcus neoformans", "assay": "Antifungal activity, MIC microdilution", "conditions": "strain ATCC 90112; RPMI 1640, 35° C., 24-48 hours", "method": "as §1, with “Antifungal activity for the compounds of this invention was established by evaluating a representative compound of this invention (Compound I) against several strains of fungi. Briefly” for “Briefly”"}, "[16]": {"tested_on": "Candida glabrata", "assay": "Antifungal activity, MIC microdilution", "conditions": "strain ATCC 90030; RPMI 1640, 35° C., 24-48 hours", "method": "as §1, with “Antifungal activity for the compounds of this invention was established by evaluating a representative compound of this invention (Compound I) against several strains of fungi. Briefly” for “Briefly”"}, "[17]": {"tested_on": "Filobasidiella neoformans", "assay": "Antifungal activity, MIC microdilution", "conditions": "strain ATCC 7472; RPMI 1640, 35° C., 24-48 hours", "method": "as §1, with “Antifungal activity for the compounds of this invention was established by evaluating a representative compound of this invention (Compound I) against several strains of fungi. Briefly” for “Briefly”"}, "[18]": {"tested_on": "Candida parapsilosis", "assay": "Antifungal activity, MIC microdilution", "conditions": "RPMI 1640, 35° C., 24-48 hours", "method": "as §1, with “Antifungal activity for the compounds of this invention was established by evaluating a representative compound of this invention (Compound I) against several strains of fungi. Briefly” for “Briefly”"}, "[19]": {"tested_on": "Candida krussii", "assay": "Antifungal activity, MIC microdilution", "conditions": "strain 94-2; RPMI 1640, 35° C., 24-48 hours", "method": "as §1, with “Antifungal activity for the compounds of this invention was established by evaluating a representative compound of this invention (Compound I) against several strains of fungi. Briefly” for “Briefly”"}, "[20]": {"tested_on": "Aspergillus fumigatus", "assay": "Antifungal activity, MIC microdilution", "conditions": "strain ATCC 26933; RPMI 1640, 35° C., 24-48 hours", "method": "as §1, with “Antifungal activity for the compounds of this invention was established by evaluating a representative compound of this invention (Compound I) against several strains of fungi. Briefly” for “Briefly”"}, "[21]": {"tested_on": "Candida tropicalis", "assay": "Antifungal activity, MIC microdilution", "conditions": "RPMI 1640, 35° C., 24-48 hours", "method": "as §1, with “Antifungal activity for the compounds of this invention was established by evaluating a representative compound of this invention (Compound I) against several strains of fungi. Briefly” for “Briefly”"}},
  "data": [
    {"smiles": "CO[C@H]1C[C@@H]2CC[C@@H](C)[C@@](O)(O2)[C@]2(O)C(=O)N3[C@@H](CCC[C@@H]32)C(=O)O[C@H]([C@H](C)C[C@@H]2CC[C@@H](O)[C@H](OC)C2)CC(=O)[C@H](C)/C=C(\\C)[C@@H](O)[C@@H](OC)C(=O)[C@H](C)C[C@H](C)/C=C/C=C/C=C/1C", "note": "[Compound I, (1S,2R,3R,6S,8S,9E,11E,13E,15S,17R,19R,20R,21E,23R,26S,29S,33R)-1,2,30-Trihydroxy-26-[(1R)-2-[(1S,3R,4R)4-hydroxy-3-methoxycyclohexyl]-1-methylethyl]-8,19-dimethoxy-3,9,15,17,21,23-hexamethyl-27,36-dioxa-35-azatetracyclo[27.4.2.1.[2,6].0[33,35]]hexatriaconta-9,11,13,21-tetraene-18,24,28,34-tetrone]", "values": [
      {"measurement": "MIC", "setting": "[1]", "value": 4, "unit": "µg/mL"},
      {"measurement": "MIC", "setting": "[2]", "value": 8, "unit": "µg/mL"},
      {"measurement": "MIC", "setting": "[3]; strain 94-1", "value": 16, "unit": "µg/mL"},
      {"measurement": "MIC", "setting": "[3]; strain 1063", "value": 16, "unit": "µg/mL"},
      {"measurement": "MIC", "setting": "[3]; strain 1117", "value": 32, "unit": "µg/mL"},
      {"measurement": "MIC", "setting": "[3]; strain ATCC 90028", "value": 16, "unit": "µg/mL"},
      {"measurement": "MIC", "setting": "[3]; strain C-83", "value": "≥ 64", "unit": "µg/mL"},
      {"measurement": "MIC", "setting": "[4]", "value": 4, "unit": "µg/mL"},
      {"measurement": "MIC", "setting": "[5]", "value": "≥ 64", "unit": "µg/mL"},
      {"measurement": "MIC", "setting": "[6]", "value": 8, "unit": "µg/mL"},
      {"measurement": "MIC", "setting": "[7]", "value": "≥ 64", "unit": "µg/mL"},
      {"measurement": "MIC", "setting": "[8]", "value": 16, "unit": "µg/mL"},
      {"measurement": "IC50 (inhibition of growth)", "setting": "[9]", "value": 20.46, "unit": "µg/mL"},
      {"measurement": "IC50 (inhibition of growth)", "setting": "[10]", "value": 27.28, "unit": "µg/mL"},
      {"measurement": "IC50 (inhibition of growth)", "setting": "[11]", "value": 7.029, "unit": "µg/mL"},
      {"measurement": "IC50 (inhibition of growth)", "setting": "[12]", "value": 8.756, "unit": "µg/mL"},
      {"measurement": "IC50 (inhibition of growth)", "setting": "[13]", "value": 24.84, "unit": "µg/mL"},
      {"measurement": "IC50 (inhibition of growth)", "setting": "[14]", "value": 6.51, "unit": "µg/mL"},
      {"measurement": "MIC", "setting": "[15]", "value": 8, "unit": "µg/mL"},
      {"measurement": "MIC", "setting": "[16]", "value": 8, "unit": "µg/mL"},
      {"measurement": "MIC", "setting": "[17]", "value": "≥ 64", "unit": "µg/mL"},
      {"measurement": "MIC", "setting": "[18]; strain 94-8", "value": 8, "unit": "µg/mL"},
      {"measurement": "MIC", "setting": "[18]; strain 94-9", "value": 8, "unit": "µg/mL"},
      {"measurement": "MIC", "setting": "[18]; strain ATCC 90018", "value": 8, "unit": "µg/mL"},
      {"measurement": "MIC", "setting": "[19]", "value": "≥ 64", "unit": "µg/mL"},
      {"measurement": "MIC", "setting": "[20]", "value": "≥ 64", "unit": "µg/mL"},
      {"measurement": "MIC", "setting": "[21]; strain 94-13", "value": 16, "unit": "µg/mL"},
      {"measurement": "MIC", "setting": "[21]; strain 94-14", "value": 8, "unit": "µg/mL"}
    ]}
  ]
}
